Results reported in a compilation of properties of binary mixtures (doi:10.1007/s10953-018-0729-9).

Experiment: xn = mol fraction of the nth substance listed
Conditions: 101.3 kPa

CCCC[n+]1ccn(C)c1.F[P-](F)(F)(F)(F)F + O=C1CCCN1 gave a speed of sound (303.15 K, x1 = 1) of 1431.7 m/s, a speed of sound (308.15 K, x1 = 1) of 1419.8 m/s and a speed of sound (313.15 K, x1 = 1) of 1408.2 m/s. The speed of sound (318.15 K, x1 = 1) was 1396.8 m/s and the speed of sound (323.15 K, x1 = 1) was 1385.6 m/s.

Molecule O=C1CCCN1 + CCCC[n+]1ccn(C)c1.F[P-](F)(F)(F)(F)F has a speed of sound (303.15 K, x2 = 0) of 1618 m/s, a speed of sound (303.15 K, x2 = 0.0494) of 1584.7 m/s and a speed of sound (303.15 K, x2 = 0.1025) of 1575.2 m/s. The speed of sound (303.15 K, x2 = 0.1503) was 1566.5 m/s, the speed of sound (303.15 K, x2 = 0.2215) was 1553.8 m/s and the speed of sound (303.15 K, x2 = 0.3376) was 1532.9 m/s. It also gave a speed of sound (303.15 K, x2 = 0.4502) of 1512.7 m/s, a speed of sound (303.15 K, x2 = 0.5654) of 1492 m/s and a speed of sound (303.15 K, x2 = 0.6527) of 1476.3 m/s. For the same molecule, the speed of sound (303.15 K, x2 = 0.8295) was 1446.5 m/s, the speed of sound (303.15 K, x2 = 0.8622) was 1442.6 m/s and the speed of sound (303.15 K, x2 = 0.9019) was 1438.5 m/s. It also gave a speed of sound (308.15 K, x2 = 0.1025) of 1560 m/s, a speed of sound (308.15 K, x2 = 0.1503) of 1551.8 m/s and a speed of sound (308.15 K, x2 = 0.3376) of 1519.5 m/s. The speed of sound (308.15 K, x2 = 0.4502) was 1499.9 m/s, the speed of sound (308.15 K, x2 = 0.5654) was 1479.6 m/s and the speed of sound (308.15 K, x2 = 0.6527) was 1464.2 m/s. For the same molecule, the speed of sound (308.15 K, x2 = 0.7421) was 1448.2 m/s, the speed of sound (308.15 K, x2 = 0.8295) was 1434.6 m/s and the speed of sound (308.15 K, x2 = 0.8622) was 1430.7 m/s. For the same molecule, the speed of sound (308.15 K, x2 = 0.9019) was 1426.6 m/s, the speed of sound (308.15 K, x2 = 0.9495) was 1423 m/s and the speed of sound (313.15 K, x2 = 0) was 1585.4 m/s. For the same molecule, the speed of sound (313.15 K, x2 = 0.0494) was 1553.7 m/s, the speed of sound (313.15 K, x2 = 0.1025) was 1545.1 m/s and the speed of sound (313.15 K, x2 = 0.1503) was 1537.3 m/s. For the same molecule, the speed of sound (313.15 K, x2 = 0.2215) was 1525.6 m/s, the speed of sound (313.15 K, x2 = 0.3376) was 1506.3 m/s and the speed of sound (313.15 K, x2 = 0.6527) was 1452.3 m/s. It also gave a speed of sound (313.15 K, x2 = 0.7421) of 1436.5 m/s, a speed of sound (313.15 K, x2 = 0.8295) of 1422.9 m/s and a speed of sound (313.15 K, x2 = 0.9019) of 1414.8 m/s. For the same molecule, the speed of sound (313.15 K, x2 = 0.9495) was 1411.2 m/s, the speed of sound (318.15 K, x2 = 0) was 1569.4 m/s and the speed of sound (318.15 K, x2 = 0.0494) was 1538.4 m/s. The speed of sound (318.15 K, x2 = 0.1025) was 1530.3 m/s, the speed of sound (318.15 K, x2 = 0.1503) was 1522.9 m/s and the speed of sound (318.15 K, x2 = 0.2215) was 1511.8 m/s. The speed of sound (318.15 K, x2 = 0.3376) was 1493.2 m/s, the speed of sound (318.15 K, x2 = 0.4502) was 1474.8 m/s and the speed of sound (318.15 K, x2 = 0.5654) was 1455.4 m/s. For the same molecule, the speed of sound (318.15 K, x2 = 0.6527) was 1440.5 m/s, the speed of sound (318.15 K, x2 = 0.7421) was 1424.8 m/s and the speed of sound (318.15 K, x2 = 0.8622) was 1407.5 m/s. It also gave a speed of sound (318.15 K, x2 = 0.9019) of 1403.3 m/s, a speed of sound (318.15 K, x2 = 0.9495) of 1399.6 m/s and a speed of sound (323.15 K, x2 = 0.0494) of 1523.2 m/s. The speed of sound (323.15 K, x2 = 0.1503) was 1508.6 m/s, the speed of sound (323.15 K, x2 = 0.2215) was 1498 m/s and the speed of sound (323.15 K, x2 = 0.3376) was 1480.2 m/s. The speed of sound (323.15 K, x2 = 0.4502) was 1462.4 m/s, the speed of sound (323.15 K, x2 = 0.5654) was 1443.5 m/s and the speed of sound (323.15 K, x2 = 0.6527) was 1428.8 m/s. For the same molecule, the speed of sound (323.15 K, x2 = 0.7421) was 1413.4 m/s, the speed of sound (323.15 K, x2 = 0.8622) was 1396.1 m/s and the speed of sound (323.15 K, x2 = 0.9019) was 1391.9 m/s.
